Molecules are shown by their SMILES.

By half-life is commonly meant how long it takes for the measured level to halve. As usually defined, the bioavailability is dose-corrected exposure relative to a reference, in per cent. Broadly, the IC50 is the midpoint of a concentration-inhibition curve. As usually defined, the AUC(0-inf) is the area under the concentration-time curve extrapolated to infinity. Broadly, the clearance is a measure of how efficiently the substance is removed, as volume per time. As usually defined, the AUC is concentration integrated over time.

Series [1] in a line: Half life in Beagle dog at 1 mg/kg, iv. The format is ADME, organism-based, Canis lupus familiaris. The following applies: in vivo.
Series [2] is described as follows: Oral bioavailability in Cynomolgus monkey at 3 mg/kg. The format is ADME, organism-based, Macaca fascicularis. The following applies: in vivo.
The target in series [3] is T1, Potassium channel subfamily K member 13 (Homo sapiens, UniProt Q9HB14).
T1 sequence (Q9HB14 whole entry): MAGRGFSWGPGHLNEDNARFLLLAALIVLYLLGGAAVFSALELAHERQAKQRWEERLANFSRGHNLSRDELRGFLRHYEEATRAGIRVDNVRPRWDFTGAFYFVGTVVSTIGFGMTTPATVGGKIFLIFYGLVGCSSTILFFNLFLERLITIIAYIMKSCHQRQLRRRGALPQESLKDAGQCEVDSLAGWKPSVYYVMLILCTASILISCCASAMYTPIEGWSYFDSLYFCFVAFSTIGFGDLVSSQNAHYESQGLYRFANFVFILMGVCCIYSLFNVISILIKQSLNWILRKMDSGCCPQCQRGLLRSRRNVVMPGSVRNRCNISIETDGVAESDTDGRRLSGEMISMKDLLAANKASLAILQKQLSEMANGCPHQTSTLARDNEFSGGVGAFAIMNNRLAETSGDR
As to the kind of experiment: Inhibition of human KCNK13 transfected in HEK293 cells assessed as reduction in thallium influx incubated for 15 mins in dark by FLIPR assay. The format is cell-based.

A short description of series [4]: Unbound drug concentration in C57BL/6 mouse brain at 10 mg/kg, po measured after 4 hrs by LC-MS/MS analysis. The format is ADME, organism-based. To be noted: in vivo.
Series [5] in a line: AUC (0 to infinity) in Sprague-Dawley rat at 0.5 mg/kg, iv. It counts as ADME, organism-based. To be noted: in vivo.
Series [6] is described as follows: Clearance in Cynomolgus monkey at 1 mg/kg, iv. It counts as ADME, organism-based, Macaca fascicularis. The following applies: in vivo.
Series [7] can be described thus: C0 in Sprague-Dawley rat at 0.5 mg/kg, iv. To be noted: in vivo. It counts as ADME, organism-based.
Series [8] has as its target T2, Potassium channel subfamily K member 13 (Mus musculus) (UniProt Q8R1P5).
T2 sequence (whole entry): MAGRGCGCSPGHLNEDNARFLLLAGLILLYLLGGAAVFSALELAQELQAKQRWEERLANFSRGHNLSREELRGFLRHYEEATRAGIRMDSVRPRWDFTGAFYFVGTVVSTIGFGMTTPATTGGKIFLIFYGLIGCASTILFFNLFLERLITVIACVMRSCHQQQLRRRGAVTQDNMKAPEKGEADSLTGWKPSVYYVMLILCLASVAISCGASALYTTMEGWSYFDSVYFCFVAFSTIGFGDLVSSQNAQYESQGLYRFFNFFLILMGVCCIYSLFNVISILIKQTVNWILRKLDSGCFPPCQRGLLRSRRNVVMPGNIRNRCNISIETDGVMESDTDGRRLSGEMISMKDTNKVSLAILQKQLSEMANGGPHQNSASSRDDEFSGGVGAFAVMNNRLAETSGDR
As to the kind of experiment: Inhibition of mouse KCNK13 transfected in HEK293 cells assessed as reduction in thallium influx incubated for 15 mins in dark by FLIPR assay relative to control. The format is cell-based.

The nature of series [9]: Half life in Sprague-Dawley rat at 3 mg/kg, po. The format is ADME, organism-based. The following applies: in vivo.
Series [10] in a line: Volume of distribution at steady state in Cynomolgus monkey at 1 mg/kg, iv. It counts as ADME, organism-based, Macaca fascicularis. The following applies: in vivo, read-out: Vdss.
The nature of series [11]: Half life in Cynomolgus monkey at 3 mg/kg, po. The following applies: in vivo. The format is ADME, organism-based, Macaca fascicularis.
The nature of series [12]: Oral bioavailability in Beagle dog at 10 mg/kg. It counts as ADME, organism-based, Canis lupus familiaris. To be noted: in vivo.
Another series deals with HEK293. Kind of series: Inhibition of recombinant human KCNK6 transfected in HEK293 cells assessed as reduction in thallium influx at 30 uM incubated for 15 mins in dark by FLIPR assay relative to control. It counts as cell-based.
The nature of series [13]: AUC (0 to infinity) in Beagle dog at 10 mg/kg, po. The format is ADME, organism-based, Canis lupus familiaris. The following applies: in vivo.

Turning to `Nc1nonc1-c1nc2cccc(F)c2n1Cc1cccnn1`, the figures for the half-life in series [1], in series [9] and in series [11] were 0.5 h, 2 h and 1.9 h, respectively. The bioavailability in series [2] is 24%. For the same compound, the 50% inhibitory concentration (IC50) in series [3] was 41 nM. Also, in series [4], the “Cp(f)” value is 248 nM. Besides, the AUC(0-inf) in series [5] is 222 ng·h/mL. This compound also came in with a clearance in series [6] of 22 mL/min/kg. This compound also showed a C0 in [7] of 304 ng/mL. Besides, the results for the Imax (in series [8]; with HEK293) were 97% and 10.7%, respectively. Besides, the Vd in series [10] was determined as 1.45 L/kg. In addition, in series [12], the F is reported as 41%. The same compound displayed an AUC in [13] of 630 ng·h/mL.

The values above are taken from ChEMBL document CHEMBL5634193, “Discovery of CVN293, a Brain Permeable KCNK13 (THIK-1) Inhibitor Suitable for Clinical Assessment” (ACS Med Chem Lett, 2024).
